The numbers were not newly measured in publication PMC5862788 (Antiviral therapy, 2018), which cites them from elsewhere.

Structures are written as SMILES. Like-named read-outs stand apart in the source and are kept apart here.

This data set concerns HCV.

`COC(=O)N[C@H](C(=O)N1CCC[C@H]1c1nc(-c2ccc(-c3ccc(-c4c[nH]c([C@@H]5CCCN5C(=O)[C@@H](NC(=O)OC)C(C)C)n4)cc3)cc2)c[nH]1)C(C)C` [daclatasvir]: the “predicted effectiveness ε” value (200 mg tid) is given as 0.996. For the compound `CC(C)(C)OC(=O)N[C@H]1CCCCC/C=C\[C@@H]2C[C@@]2(C(=O)NS(=O)(=O)C2CC2)NC(=O)[C@@H]2C[C@@H](OC(=O)N3Cc4cccc(F)c4C3)CN2C1=O` [danoprevir], the “predicted effectiveness ε” value (100 mg bid) is listed as 0.976; the “predicted effectiveness ε” value (monotherapy, 200 mg tid and 300 mg bid) is on record as 0.992. On to `CC(C)C(=O)OC[C@H]1O[C@@H](n2ccc(N)nc2=O)[C@](C)(F)[C@@H]1OC(=O)C(C)C` [mericitabine], for which the “predicted effectiveness ε” value (1500 mg bid) is reported as 0.997.
